Laboratory results taken from paper PMC6160999, “Pharmacokinetics, Tissue Distribution and Excretion of a Novel Diuretic (PU-48) in Rats” (Pharmaceutics, 2018).
Like-named read-outs stand apart in the source and are kept apart here.

How the values were obtained:
[1] = Plasma pharmacokinetics after single oral PU-48 SNEDDS; type: in vivo, rat; details: for AUC(0-inf) / AUC(0-t) / Cmax / Tmax / t1/2 / half-life: rat plasma, n=6
Experimental: The method for quantification PU-48 in rat samples (plasma, thirteen tissues, urine and bile) has been developed and validated in our preliminary experiment. Briefly, PU-48 was quantitative analyzed by the liquid chromatography-electrospray ionization source-triple quadrupole tandem mass spectrometer (LC-MS/MS) system, which consisted of the Shimazdu LC-20AD pumpers (Shimadzu, Kyoto, Japan), a 20 μL loop and a SPD-M20A PDA detector. Chromatographic separation was accomplished on a Shimazdu Inertsil ODS-4 C18 column (2.1 × 100 mm, 3 µm, Shimadzu) and coupled to the API4000 mass spectrometer detector equipped with the Analyst 1.6 software (AB Sciex, Redwood City, CA, USA). The monitored ion transitions were mass-to-charge ratio (m/z) 289.1 → 229.2 for PU-48 and m/z 385.3 → 267.1 for the internal standard under positive mode. The mobile phase consisted of (A) water, and (B) acetonitrile, both containing 0.05% formic acid using the following gradient elution: 0–2 min (20% B), 2–8 min (20–100% B), 8–9.5 min (100% B), 9.5–13 min (20% B). Sample of 5 μL was injected. The quantification analysis of PU-48 in plasma, urine, bile and tissues (liver, muscle, and adipose tissue) were evaluated for specificity, linearity, precision, accuracy and recovery (See Supplementary Materials Tables S1–S3).
After fasting overnight with free drinking water (12 h before the experiment), eighteen rats were divided randomly into three groups, and blood samples at each time point were collected from six rats. The rats were given three doses of PU-48 (3, 6, or 12 mg/kg, respectively, 1.2 mg/mL in the SNEDDS formulation) by oral gavage. Blood samples (0.3 mL) were collected from the ophthalmic venous plexus at the predose, 0.25, 0.5, 1, 2, 4, 6, 8, 12, 24, 36, and 48 h post-dosing (total 12 time points) in heparinized tubes. The blood samples were centrifuged at 2500 rpm (1200× g) for 15 min and the plasma was stored at −20 °C until analysis.
The non-compartmental analysis method was used to calculate the pharmacokinetic parameters of PU-48 using Drug and Statistical Version 3.0 (DAS 3.0) software (the Mathematical Pharmacology Committee, Chinese Pharmacological Society, Beijing, China). The maximum peak concentration of the drug in plasma (Cmax) and the time to reach the maximum concentration (Tmax) were obtained directly from the experimental data. The area under the plasma concentration-time curves from 0 to infinity (i.e., AUC0–∞) and from 0 to the time of the last quantifiable concentration (AUC0–t) was calculated by the trapezoidal summation. The terminal elimination rate constant (Ke) was derived from the slope of the linear regression curve by fitting the natural logarithms of the terminal concentrations versus time. The terminal elimination half-life (t1/2) was calculated by 0.693/Ke. The data from the quality control (QC) samples were examined by a one-way analysis of variance (ANOVA). All values were expressed as mean ± SD (Standard Deviation).

[2] = system: IMCD urea transporter UT-As; parameters: method as in PMID 25298345, PMID 12133842, PMID 12965892, PMID 23597791, PMID 24210002; details: rodents, compared to the other thienoquinolin lead compounds; cited from earlier work
plasma protein = assay: Plasma protein binding by equilibrium dialysis, rat plasma; type: in vitro ADME; details: for Concentration in Buffer (post-dialysis) / Concentration in Plasma (post-dialysis) / Protein-Binding Ratio: rat plasma, n=5; for Concentration in Buffer (post-dialysis) / Concentration in Plasma (post-dialysis): 37 °C 24 h
Experimental: The concentration of PU-48 prototype in biological sample (feces and plasma protein binding analysis) was determined using a validated high-performance liquid chromatographic (HPLC) method our preliminary experiment (See Supplementary Materials HPLC Analysis and Method Validation). Briefly, the quantitative analysis of PU-48 was performed using a HPLC consistent of model 510 pump with a model 2487 ultraviolet detector, a model Rheodyne 7725 injector, and a column oven. The analytical conditions were as follows—The detection wavelength—293 nm; analytical column—a reversed-phase Acclaim C18 (4.6 mm × 250 mm, 5.0 µm, Dionex, Sunnyvale, CA, USA); column temperature—25 °C; mobile phase—acetonitrile—distilled water at a ratio of 60:40 (v/v); flow rate—1 mL/min. In this study, the methods for the feces samples were evaluated for specificity, linearity, precision, accuracy, and recovery (See Supplementary Materials Tables S4–S6).
The binding ratio of PU-48 to plasma protein was determined by equilibrium dialysis. A volume of 1 mL of plasma with PU-48 (0.25, 1 and 4 µg/mL) was added to a semi-permeable membrane bag (plasma chamber), the bag was place into the other clean tube with 9 mL PBS (buffer chamber). The equilibrium dialysis was performed at 37 °C for 24 h. At the end of dialysis, 500 μL each of post-dialysis samples from the plasma and the buffer chambers were collected and analyzed by HPLC method. The plasma protein binding of PU-48 was calculated from the concentration of PU-48 in PBS (free concentration) and in plasma (free + bound) according to equation: Bound (%) = (Concplasma chamber − Concbuffer chamber)/Concplasma chamber × 100%.

[3] = plasma, rat, oral PU-48 SNEDDS 3 mg/kg
[4] = plasma, rat, oral PU-48 SNEDDS 6 mg/kg
[5] = plasma, rat, oral PU-48 SNEDDS 12 mg/kg

COC(=O)c1sc2nc3ccc(OC)cc3cc2c1N [PU-48, Methyl 3-amino-6-methoxythieno [2,3-b] quinoline-2-carboxylate]
concentration at 0.25 h [1, 3]: 11.9 ± 15.5 ng/mL | concentration at 0.25 h [1, 4]: 51.1 ± 51.2 ng/mL | concentration at 0.25 h [1, 5]: 91.1 ± 52 ng/mL | concentration at 0.5 h [1, 3]: 12.6 ± 11.1 ng/mL | concentration at 0.5 h [1, 4]: 52.9 ± 46.8 ng/mL | concentration at 0.5 h [1, 5]: 94.3 ± 49.6 ng/mL | concentration at 1 h [1, 3]: 11.8 ± 11.2 ng/mL | concentration at 1 h [1, 4]: 48.3 ± 32.8 ng/mL | concentration at 1 h [1, 5]: 74.8 ± 36.1 ng/mL | concentration at 2 h [1, 3]: 13.8 ± 16.6 ng/mL | concentration at 2 h [1, 4]: 16.8 ± 10.1 ng/mL | concentration at 2 h [1, 5]: 19.7 ± 4.2 ng/mL | concentration at 4 h [1, 3]: 1.1 ± 0.7 ng/mL | concentration at 4 h [1, 4]: 2.3 ± 1.2 ng/mL | concentration at 4 h [1, 5]: 4.3 ± 3.1 ng/mL | concentration at 6 h [1, 3]: 0.3 ± 0.2 ng/mL | concentration at 6 h [1, 4]: 1.2 ± 0.5 ng/mL | concentration at 6 h [1, 5]: 2.1 ± 0.8 ng/mL | concentration at 8 h [1, 3]: 0.5 ± 0.9 ng/mL | concentration at 8 h [1, 4]: 0.6 ± 0.4 ng/mL | concentration at 8 h [1, 5]: 1.5 ± 0.5 ng/mL | concentration at 12 h [1, 3]: 0.1 ± 0.1 ng/mL | concentration at 12 h [1, 4]: 0.3 ± 0.2 ng/mL | concentration at 12 h [1, 5]: 1.1 ± 0.8 ng/mL | concentration at 24 h [1, 4]: 0.3 ± 0.3 ng/mL | concentration at 24 h [1, 5]: 0.1 ng/mL | concentration at 36 h [1, 4]: 0.2 ± 0.1 ng/mL | concentration at 36 h [1, 5]: 0.8 ± 0.9 ng/mL | concentration at 48 h ([1]; plasma, 48 h, rat, oral PU-48 SNEDDS 12 mg/kg): 0.2 ng/mL | AUC(0-inf) ([1]; oral PU-48 SNEDDS 3 mg/kg): 60.5 ± 38.5 ng·h/mL | AUC(0-t) ([1]; oral PU-48 SNEDDS 3 mg/kg): 60 ± 38.3 ng·h/mL | Cmax ([1]; oral PU-48 SNEDDS 3 mg/kg): 12.6 ± 11.1 ng/mL | Tmax ([1]; oral PU-48 SNEDDS 3 mg/kg): 1.19 ± 0.94 h | t1/2 ([1]; oral PU-48 SNEDDS 3 mg/kg): 7.14 ± 2.93 h | AUC(0-inf) ([1]; oral PU-48 SNEDDS 6 mg/kg): 108 ± 52.5 ng·h/mL | AUC(0-t) ([1]; oral PU-48 SNEDDS 6 mg/kg): 107 ± 53 ng·h/mL | Cmax ([1]; oral PU-48 SNEDDS 6 mg/kg): 52.9 ± 46.8 ng/mL | Tmax ([1]; oral PU-48 SNEDDS 6 mg/kg): 0.63 ± 0.31 h | AUC(0-inf) ([1]; oral PU-48 SNEDDS 12 mg/kg): 181 ± 62.5 ng·h/mL | AUC(0-t) ([1]; oral PU-48 SNEDDS 12 mg/kg): 179 ± 60.1 ng·h/mL | Cmax ([1]; oral PU-48 SNEDDS 12 mg/kg): 94.3 ± 49.6 ng/mL | t1/2 ([1]; oral PU-48 SNEDDS 12 mg/kg): 6.87 ± 3.49 h | Mean plasma concentration at the 48 h time point ([1]; rat, oral 3, 6 and 12 mg/kg, LLOQ 0.1 ng/mL): below the lower limit of quantitation (LLOQ) | half-life ([1]; rat, plasma, po, 3 mg/kg, oral PU-48 SNEDDS 3 mg/kg): 7.1 ± 2.9 h | Tmax ([1]; rat, plasma, po, 3 mg/kg, oral PU-48 SNEDDS 3 mg/kg, read-out: Tmax): 1.2 ± 0.9 h | half-life ([1]; rat, plasma, po, 6 mg/kg, oral PU-48 SNEDDS 6 mg/kg): 7 ± 2.7 h | Tmax ([1]; rat, plasma, po, 6 mg/kg, oral PU-48 SNEDDS 6 mg/kg, read-out: Tmax): 0.6 ± 0.3 h | half-life ([1]; rat, plasma, po, 12 mg/kg, oral PU-48 SNEDDS 12 mg/kg): 6.9 ± 3.5 h | Tmax ([1]; rat, plasma, po, 12 mg/kg, oral PU-48 SNEDDS 12 mg/kg, read-out: Tmax): 0.5 ± 0.27 h | Selective inhibition towards IMCD urea transporter UT-As [2]: higher selective inhibition | Concentration in Buffer (post-dialysis) (plasma protein; added 0.25 µg/mL): 12 ± 3 ng/mL | Concentration in Plasma (post-dialysis) (plasma protein; added 0.25 µg/mL): 127 ± 7 ng/mL | Protein-Binding Ratio (plasma protein; added 0.25 µg/mL): 90.70 ± 2.18% | Concentration in Buffer (post-dialysis) (plasma protein; added 1 µg/mL): 47 ± 2 ng/mL | Concentration in Plasma (post-dialysis) (plasma protein; added 1 µg/mL): 524 ± 32 ng/mL | Protein-Binding Ratio (plasma protein; added 1 µg/mL): 91.06 ± 0.78% | Concentration in Buffer (post-dialysis) (plasma protein; added 4 µg/mL): 194 ± 19 ng/mL | Concentration in Plasma (post-dialysis) (plasma protein; added 4 µg/mL): 2128 ± 166 ng/mL | Protein-Binding Ratio (plasma protein; added 4 µg/mL): 90.83 ± 1.17% | fraction unbound at 24 h (plasma protein; rat, plasma, rats, overall statement): < 0.1
